Test results reported in BigSolDB 2.1.

CCOC(=O)c1ccc(N)cc1
solubility (mole fraction)
Details	in ethanol	in isobutanol	in isopentanol	in methanol	in n-butanol	in n-propanol
283.15 K	0.0522	0.0281	0.0335	0.0528	0.037	0.0441
287.15 K	0.0611	0.0328	0.0371	0.0629	0.0467	0.0521
291.15 K	0.0712	0.0392	0.0439	0.075	0.0562	0.0605
295.15 K	0.0831	0.048	0.0529	0.0863	0.0668	0.071
299.15 K	0.0982	0.0583	0.0632	0.103	0.0821	0.085
303.15 K	0.115	0.071	0.0757	0.12	0.0981	0.101
307.15 K	0.135	0.0879	0.0917	0.141	0.118	0.121
311.15 K	0.16	0.111	0.115	0.168	0.146	0.148
315.15 K	0.191	0.14	0.145	0.2	0.176	0.179
318.15 K	0.221	0.168	0.172	0.227	0.207	0.211
321.15 K	0.251	0.204	0.206	0.259	0.241	0.245
324.15 K	0.289	0.25	0.252	0.296	0.281	0.284
327.15 K	0.328	0.303	0.305	0.335	0.323	0.326
